Measurements: patent US20060234378A1, “Molecular switch regulating neurogenesis” (The Salk Institute For Biological Studies, priority 2005, published 2006)

Tested on: NeuroD1 and NeuroD2 genes
Experiment: RT PCR of NeuroD genes after TSA and 5AzaC treatment of adult hippocampal neural stem cells
Format: cell-based, rat
Settings: 5 nM for 2 days
Protocol: To determine whether either of these mechanisms contributed to repression of the NeuroD promoter, adult hippocampal neural stem cells were treated with either an HDAC inhibitor, trichostatin A (TSA), or with the de-methylation reagent 5′-aza-cytidine (5AzaC). Total RNA was extracted from cells that had been treated with 5 nM TSA for 2 days and with 3 μM 5AzaC for 4 days. RT PCR analysis was performed with specific primers for NeuroD1 (SEQ ID NOs:7 and 8) and NeuroD2 (SEQ ID NOs:9 and 10) genes and a control gene, GAPDH (SEQ ID NOs:3 and 4).

CC(/C=C/C(=O)NO)=C\[C@@H](C)C(=O)c1ccc(N(C)C)cc1 [TSA, trichostatin A]
expression of GAPDH (control gene): no effects
endogenous expression levels of mRNAs of NeuroD1 and NeuroD2 (compared with untreated progenitor cultures): increased
